{
  "source": "patent US7368287B2",
  "about": "“Use of L-α-lysophosphatidylcholine to obtain the differentiation of monocytes into mature dendritic cells in vitro” (Biomerieux, priority 2002, dated 2008)",
  "key": {"[1]": {"tested_on": "monocytes isolated from human peripheral blood", "assay": "Internalization capacity (endocytosis, pinocytosis, macropinocytosis) of differentiated monocytes", "assay_type": "cell-based", "conditions": "control = 100%", "experimental": "The “control” and “LPC” cells used in this analysis are those obtained after 6 days of differentiation according to the protocol described in example 1. These cells are incubated at 37° C.: • for 30 minutes with 1 mg/ml of FITC-T70-Dextran (Sigma) in order to estimate the capacity of these cells for internalization by endocytosis, • for 30 minutes with 1 mg/ml of Lucifer Yellow (ref. L0259, Sigma, St Quentin-Fallavier, France) in order to estimate the capacity of these cells for internalization by pinocytosis, • for 3 hours with carboxylate-modified yellow-green FluoSpheres (trade name, 0.45 μm, Molecular Probes, Leiden, The Netherlands) in order to estimate the capacity of these cells for internalization by macropinocytosis.\nThe internalization is stopped on ice with a cold PBS buffer containing 0.1% of BSA (Bovine Serum Albumin) and 0.05% of NaN3. The “control” and “LPC” cells are washed 3 times at 4° C. in this same buffer and the fluorescence is quantified by FACScalibur (trade name, Becton Dickinson)."}, "[2]": {"tested_on": "Gi protein-coupled receptors", "assay": "Induction of CD86 by LPC after preincubation with pertussis toxin", "assay_type": "cell-based, human", "conditions": "LPC cells = 100%; PTX 100 ng/ml for 3 hours before LPC", "experimental": "The phenotype of the “control” and “LPC” cells is analyzed by flow cytometry on a FACSCalibur (Becton Dickinson, Francklin Lakes, N.J., USA) using FITC (fluorosceine isothiocyanate)-conjugated anti-CD14, anti-HLA-DR and anti-CD80 and PE (phycoerythrin)-conjugated anti-CD1a, anti-CD83, anti-CD86 and anti-CD40 (Beckman Coulter). According to the state of the art, monocytes preferentially have a CD14+ CD1a− phenotype, immature dendritic cells preferentially have a CD14− CD1a+CD86− phenotype, and mature dendritic cells preferentially have a CD14− CD1a intermediate—CD86+ phenotype.\nInitially, in order to determine whether the receptors involved in the action of LPC in the differentiation of monocytes into mature dendritic cells belonged to the family of G protein-coupled receptors, PTX (pertussis toxin; 100 ng/ml), known to block Gi proteins, was added to the culture medium for 3 hours. The culture medium was then changed and the LPC was added as described in example 1."}, "PPARγ": {"molecular_target": "T1, PPARγ (Homo sapiens, UniProt P37231)", "T1 construct": "After having harvested the cells, the nuclear proteins were extracted with the Nuclear extract Kit (Sigma); endogenous in cells; host or cells: monocytes undergoing differentiation into dendritic cells (nuclear extract)", "T1 sequence (P37231 1-505)": "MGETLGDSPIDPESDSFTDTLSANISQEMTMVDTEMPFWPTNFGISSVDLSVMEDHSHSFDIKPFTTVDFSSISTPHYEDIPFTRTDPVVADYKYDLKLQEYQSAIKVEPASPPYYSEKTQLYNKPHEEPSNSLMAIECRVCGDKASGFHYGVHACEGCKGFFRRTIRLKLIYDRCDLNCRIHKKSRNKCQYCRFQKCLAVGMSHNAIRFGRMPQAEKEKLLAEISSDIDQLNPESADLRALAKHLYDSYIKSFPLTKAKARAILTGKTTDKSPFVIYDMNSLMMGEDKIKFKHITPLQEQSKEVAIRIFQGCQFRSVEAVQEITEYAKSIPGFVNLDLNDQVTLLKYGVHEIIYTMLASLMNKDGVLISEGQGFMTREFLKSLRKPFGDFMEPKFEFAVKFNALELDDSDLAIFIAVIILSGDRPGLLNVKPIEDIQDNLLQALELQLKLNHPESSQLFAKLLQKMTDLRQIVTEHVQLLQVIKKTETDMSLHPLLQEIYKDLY", "assay": "PPAR binding activity by gel shift on nuclear proteins of treated monocytes", "assay_type": "cell-based", "experimental": "(§1) Next, the inventors investigated the transcription factors involved in the maturation process induced by LPC. In order to determine whether PPARs are involved in the LPC-induced maturation, the ability of the two transcription factors PPARγ and PPARδ to bind was analyzed using the gel shift technique. 3 isotypes of PPAR nuclear receptors (peroxisome proliferator-activated receptor) exist: α, γ and δ. PPARγs are the targets for molecules of the thiazolidinedione class, such as ciglitizone, used in the treatment of type II diabetes. PPARδs have a broader expression and can be repressors of PPARγs. The monocytes undergoing differentiation were incubated for two hours with a solution of LPC (40 μM) (“LPC” cells). “Control” cells are also obtained in the absence of LPC in the culture medium. After having harvested the cells, the nuclear proteins were extracted with the Nuclear extract Kit (Sigma). The nuclear proteins were then brought into contact with a ratioactively labeled probe containing a response element recognized by PPARs. […] The PPAR binding activity was determined by measuring the intensity of these bands. These activities are expressed as a percentage with respect to the “control” cells. […]\n(§2) The activity of the PPARγ and PPARδ transcription factors was measured in these cells by the gel shift technique, as described above.\n(§3) INTRALIPID® regulates PPARs in vitro. […] The cells were harvested after 1 h, 2 h or 8 h of incubation with INTRALIPID®, the nuclear proteins were extracted and the activity of PPARγ and PPARδ was determined as described in example 6.\n(§4) Secondly, a solution of INTRALIPID® (50 μg/ml of phospholipids) was added to the culture medium on the 5th day of monocyte differentiation, 15 minutes before the addition of a solution of LPC (40 μM) (“LPC+Intralipid” cells). […] The cells were harvested after 2 h of incubation, the nuclear proteins were extracted and the activity of PPARγ and PPARδ was determined as described in example 6."}, "PPARδ": {"tested_on": "PPARδ", "assay": "PPAR binding activity by gel shift on nuclear proteins of treated monocytes", "assay_type": "cell-based, human", "experimental": "as §1, §2, §3, §4"}, "[3]": {"conditions": "Table 6, LPC 40 μM, two hours, percentage with respect to control cells"}, "[4]": {"conditions": "Table 16, Intralipid 50 μg/ml phospholipids 15 minutes before LPC 40 μM, 2 h, control = 100%"}},
  "data": [
    {"substance": "L-α-lysophosphatidylcholine [LPC]", "values": [
      {"measurement": "Capacity for internalization by endocytosis", "setting": "[1]; FITC-T70-Dextran 30 minutes", "result": 53, "unit": "%"},
      {"measurement": "Capacity for internalization by macropinocytosis", "setting": "[1]; FluoSpheres 3 hours", "result": 66, "unit": "%"},
      {"measurement": "Capacity for internalization by pinocytosis", "setting": "[1]; Lucifer Yellow 30 minutes", "result": 49, "unit": "%"},
      {"measurement": "Induction of CD86", "setting": "[2]", "result": 100, "unit": "%"},
      {"measurement": "PPARγ binding activity", "setting": "PPARγ; [3]", "result": 0, "unit": "%"},
      {"measurement": "PPARγ activity", "setting": "PPARγ; [4]", "result": 1, "unit": "%"},
      {"measurement": "PPARδ binding activity", "setting": "PPARδ; [3]", "result": 263, "unit": "%"},
      {"measurement": "PPARδ activity", "setting": "PPARδ; [4]", "result": 160, "unit": "%"}
    ]}
  ]
}
